US20250011311A1, “AMIDO HETEROAROMATIC COMPOUNDS” (AstraZeneca AB, priority 2022, published 2025)

How the values were obtained:
[1] = target: recombinant 17bHSD4 (M1-N311) (Homo sapiens (Human), UniProt P51659); assay: In Vitro 17bHSD4 Enzyme Assay; type: biochemical; settings: 40 nM 17bHSD4, 0.125 mM NAD, 15 μM Estradiol, 1.5 h; NADH fluorescence; read-out: 17HSD17b4 Enzyme assay IC50
Protocol: In Vitro 17bHSD4 Enzyme Assay
10 concentration of compounds (0.2 μl) in DMSO was added to GREINER FLUOTRAC 200 384 well plate (781076) using ECHO dispensing (BECKMAN COULTER). 80 nl of 10 mM Estradiol (SIGMA, E8875) was added using Echo dispensing. The enzyme reaction was initiated by addition, using MULTIDROP COMBI dispensing (THERMO FISHER), of 40 μl of a mix containing recombinant 17bHSD4 (M1-N311) and NAD. Final assay conditions were 40 nM of 17bHSD4, 0.125 mM of NAD, 15 μM Estradiol and various concentrations of compound in buffer (5 mM EDTA (TEKNOVA E0306), 0.01% DDM (AFFYMETRIX D310) in 50 mM Tris-Cl, pH 7.4). After each addition plates were centrifuged for 1 min at 150×g (EPPENDORF, 5810R, A-4-81). NADH formation was measured by fluorescence intensity (FI) (Ex360/Em460) at time zero (to) and at 1.5 h (t1) in a PHERASTAR FSX (BMG LABTECH). FI for each sample was calculated as FI at t1 minus FI at t0.
(§1) […] […] was used for curve fitting and calculation of IC50 values.
(§2) Compound effect was calculated with the formula below;
(§3) where X represents the effect in the presence of test compound, min is DMSO and max is the maximum inhibition of enzyme using a known inhibitor as control.

[2] = target: recombinant 17bHSD13 (N2-K300) (Homo sapiens (Human), UniProt Q7Z5P4); assay: In Vitro 17bHSD13 Enzyme Assay; type: biochemical; settings: 80 nM 17bHSD13, 0.5 mM NAD, 20 μM Estradiol, 2.5 h; estradiol to estrone by LC-MS/MS
Sequence of recombinant 17bHSD13 (N2-K300) (Q7Z5P4 2-300): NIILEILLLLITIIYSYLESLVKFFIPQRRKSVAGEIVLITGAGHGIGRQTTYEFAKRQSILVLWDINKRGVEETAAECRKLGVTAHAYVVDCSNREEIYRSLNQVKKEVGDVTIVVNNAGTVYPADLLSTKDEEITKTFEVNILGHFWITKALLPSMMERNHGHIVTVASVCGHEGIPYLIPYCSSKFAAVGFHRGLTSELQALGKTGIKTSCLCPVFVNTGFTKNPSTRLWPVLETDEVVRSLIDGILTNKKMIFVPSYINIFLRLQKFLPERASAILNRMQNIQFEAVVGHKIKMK
Protocol: In Vitro 17bHSD13 Enzyme Assay
The enzyme reaction was initiated by addition, using CERTUS-FLEX dispenser (GYGER), of 20 μl of substrate solution containing NAD (SIGMA, N1511) and Estradiol (SIGMA, E8875). […] Final assay conditions were 80 nM of 17bHSD13, 0.5 mM of NAD, 20 μM Estradiol and various concentrations of compound in buffer (5 mM EDTA (TEKNOVA E0306), 0.01% DDM (AFFYMETRIX D310) in 50 mM Tris-Cl, pH 7.4).
(§4) SCIEX LC-MS/MS system: Sample was injected with CTC analytical injector, SHIMATZU LC pumps LC20 and analyzed on the SCIEX API 5000 LCMSMS system with the following settings. […] The mobile phases consist of A (water with 0.2% formic acid) and B (acetonitrile with 0.2% formic acid). The LC gradient profile is as follows: 50% B during 0 to 0.5 min, a linear increase to 100% B during 0.5 to 1 min, hold at 100% B during 1 to 1.6 min then back to 50% B from 1.6 to 2 min. […] Detection was performed on a API 5000 LC/MS/MS system with a triple quadrupole mass spectrometer, a TURBO V ion source, in multiple reaction monitoring (MRM) mode at positive polarity with APCI probe. […] The dwell times were 100 ms for each transition and a depolarization and collision energy of 100 and 40, respectively. Data from MS signals was using area under curve (AUC). Ratio=Estrone/(Estrone+Estradiol)
as §1, §2, §3

[3] = target: over expressed HSD17β13 in HEK293S cells (Homo sapiens (Human), UniProt Q7Z5P4); assay: In Vitro 17bHSD13 Cell Assay; type: cell-based; settings: HEK293S cells over expressing HSD17β13; estradiol to estrone conversion, 18 h, LC-MS/MS; read-out: 17bHSD1713 Cell assay IC50
Sequence of over expressed HSD17β13 in HEK293S cells (Q7Z5P4 20-300): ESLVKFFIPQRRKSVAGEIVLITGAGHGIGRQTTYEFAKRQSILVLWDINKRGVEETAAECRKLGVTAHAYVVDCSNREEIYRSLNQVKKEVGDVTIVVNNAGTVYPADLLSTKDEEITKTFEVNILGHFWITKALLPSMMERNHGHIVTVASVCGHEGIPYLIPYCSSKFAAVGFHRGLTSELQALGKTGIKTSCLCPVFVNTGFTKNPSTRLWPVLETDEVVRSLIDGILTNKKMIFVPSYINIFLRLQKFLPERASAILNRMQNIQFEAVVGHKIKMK
Protocol: In Vitro 17bHSD13 Cell Assay
Inhibition of 17bHSD13 was measured in a cell-based assay with over expressed HSD17β13 in HEK293S cells, measuring estradiol to estrone conversion by LCMS/MS.
Samples were analyzed using LC-MS/MS.
as §4, with “analysed” for “analyzed”
as §1, §2, §3

[4] = target: over expressed HSD17β9 in HEK293S cells (Homo sapiens (Human), UniProt Q92781); assay: In Vitro 17bHSD9 Cell Assay; type: cell-based; settings: HEK293S cells over expressing HSD17β9; retinol to retinal conversion, 18 h, LC-MS/MS; read-out: 17bHSD9 Cell assay IC50
Sequence of over expressed HSD17β9 in HEK293S cells (Q92781 whole entry): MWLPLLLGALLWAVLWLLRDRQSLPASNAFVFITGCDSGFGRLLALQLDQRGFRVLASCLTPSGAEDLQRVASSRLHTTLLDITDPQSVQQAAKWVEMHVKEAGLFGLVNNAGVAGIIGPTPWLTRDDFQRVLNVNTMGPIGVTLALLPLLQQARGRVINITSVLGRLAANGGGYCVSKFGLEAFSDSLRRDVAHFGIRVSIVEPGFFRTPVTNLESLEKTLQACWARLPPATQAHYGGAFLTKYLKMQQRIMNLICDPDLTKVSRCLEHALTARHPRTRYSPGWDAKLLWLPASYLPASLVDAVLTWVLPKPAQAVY
Protocol: In Vitro 17bHSD9 Cell Assay
Inhibition of 17bHSD9 was measured in a cell-based assay with over expressed HSD17β9 in HEK293S cells, measuring retinol to retinal conversion by LCMS/MS.
Cells were plated in 384 well plates (GREINER CELL culture plate 384w black/clear Poly-D-Lysine) at 10 K c/w in 30 μl of culture media (DMEM with GLUTAMAX plus 10% FBS). […] After 18 h of cell culturing for 20 μl of media was transferred using BRAVO dispensing robot (AGILENT) to a GREINER PP 384 well plate (781280) and 40 μl of 50% acetonitrile was added. Samples were analyzed using LC-MS/MS.
SCIEX LC-MS/MS system: Sample was injected with CTC analytical injector, SHIMATZU LC pumps LC20 and analysed on the SCIEX API 5000 LCMSMS system with the following settings. Samples were chromatographed on a WATERS, symmetry, C8, 3.5 μm, 2.1×50 mm) column at constant flow rate of 0.5 mL/min. The mobile phases consists of A (water with 0.2% formic acid) and B (acetonitrile with 0.2% formic acid). The LC gradient profile is as follows: 50% B during 0 to 0.1 min, a linear increase to 100% B during 0.1 to 0.8 min, hold at 100% B during 0.8 to 1.5 min then back to 50% B from 1.5 to 1.6 min and hold during run time. The run time was 2 min with retention times of approximately 1.54 and 1.62 min for Retinol and Retinal, respectively. Detection was performed on a API 5000 LC/MS/MS system with a triple quadrupole mass spectrometer, a TURBO V ion source, in multiple reaction monitoring (MRM) mode at positive polarity with ESI probe. The MRM pairs were m/z 269.3 to m/z 93.0 and m/z 285.2 to 161.0. for Retinol and Retinal, respectively. The dwell times were 100 ms for each transition and a depolarization and collision energy of 50 and 25, respectively. Data from MS signals was using area under curve (AUC). Ratio=Retinal/(Retinal+Retinol).
as §1, §2, §3

Sequence of recombinant 17bHSD4 (M1-N311) (P51659 1-311): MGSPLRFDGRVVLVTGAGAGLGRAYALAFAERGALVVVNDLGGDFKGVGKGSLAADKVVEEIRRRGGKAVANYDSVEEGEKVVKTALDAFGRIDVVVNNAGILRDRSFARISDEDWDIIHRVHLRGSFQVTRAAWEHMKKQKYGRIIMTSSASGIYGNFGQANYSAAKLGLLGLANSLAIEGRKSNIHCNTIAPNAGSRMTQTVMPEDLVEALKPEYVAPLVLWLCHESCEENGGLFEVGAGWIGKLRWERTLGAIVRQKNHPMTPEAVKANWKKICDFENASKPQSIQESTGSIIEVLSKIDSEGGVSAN

Row | SMILES | IC50 [1] [µM] | IC50 [2] [µM] | IC50 [3] [µM] | IC50 [4] [µM]
1 | O=C(c1noc(-c2cc(F)c(F)c(O)c2F)n1)N1CCOC2(CCCC2)C1 [Example 45, (6-Oxa-9-azaspiro[4.5]decan-9-yl)(5-(2,4,5-trifluoro-3-hydroxyphenyl)-1,2,4-oxadiazol-3-yl)methanone] | > 50 | 0.466 | 0.51 | 4.1
2 | N#Cc1c(C(=O)N2CCN(c3nc4ccccc4o3)CC2)noc1-c1cc(F)c(F)c(O)c1F [Example 23, 3-(4-(Benzo[d]oxazol-2-yl)piperazine-1-carbonyl)-5-(2,4,5-trifluoro-3-hydroxyphenyl)isoxazole-4-carbonitrile] | 33.9 | 0.141 | 0.93 | > 50
3 | CC1(C)COCCN1C(=O)c1noc(-c2cc(F)c(F)c(O)c2F)n1 [Example 48, (3,3-Dimethylmorpholino)(5-(2,4,5-trifluoro-3-hydroxyphenyl)-1,2,4-oxadiazol-3-yl)methanone] | > 50 | 0.388 | 1.1 | > 50
4 | N#Cc1cccc(C2CN(C(=O)c3noc(-c4cc(F)c(F)c(O)c4F)n3)CCN2)c1 (centres unmarked) [Example 42, 3-(4-(5-(2,4,5-Trifluoro-3-hydroxyphenyl)-1,2,4-oxadiazole-3-carbonyl)piperazin-2-yl)benzonitrile] | > 50 | 0.908 | 10 | > 50
5 | COc1ccc(OC2CCN(C(=O)c3noc(-c4cc(F)c(F)c(O)c4F)c3C#N)CC2)nc1 [Example 25, 3-(4-((5-Methoxypyridin-2-yl)oxy)piperidine-1-carbonyl)-5-(2,4,5-trifluoro-3-hydroxyphenyl)isoxazole-4-carbonitrile] | 24.8 | 0.288 | 0.82 | 22.7
6 | C[C@@H]1CCN(C(=O)c2noc(-c3cc(F)c(F)c(O)c3F)n2)CCO1 [Example 51, (R)-(7-Methyl-1,4-oxazepan-4-yl)(5-(2,4,5-trifluoro-3-hydroxyphenyl)-1,2,4-oxadiazol-3-yl)methanone] | > 50 | 1.69 | 2.69 | > 50
7 | O=C(c1noc(-c2cc(F)c(F)c(O)c2F)n1)N1CCCCC1 [Example 44, Piperidin-1-yl(5-(2,4,5-trifluoro-3-hydroxyphenyl)-1,2,4-oxadiazol-3-yl)methanone] | 38.4 | 0.432 | 0.19 | 11.2
8 | O=C(c1noc(-c2cc(F)c(F)c(O)c2F)n1)N1CCOC2(CCC2)C1 [Example 52, (5-Oxa-8-azaspiro[3.5]nonan-8-yl)(5-(2,4,5-trifluoro-3-hydroxyphenyl)-1,2,4-oxadiazol-3-yl)methanone] | 34.6 | 0.281 | 0.48 | 1.2

The next lines start with the values.

Row | IC50 [1] [µM] | IC50 [2] [µM] | IC50 [3] [µM] | IC50 [4] [µM] | SMILES
9 | 26.3 | 0.044 | 0.8 | 30.4 | COc1ccc(OC2CCN(C(=O)c3noc(-c4cc(F)c(F)c(O)c4F)n3)CC2)nc1 [Example 68, (4-((5-Methoxypyridin-2-yl)oxy)piperidin-1-yl)(5-(2,4,5-trifluoro-3-hydroxyphenyl)-1,2,4-oxadiazol-3-yl)methanone]
10 | > 50 | 1.01 | 0.24 | > 50 | C[C@@H]1CN(C(=O)c2nc(-c3cc(F)c(F)c(O)c3F)no2)C[C@H](C)O1 [Example 110, ((2R,6S)-2,6-Dimethylmorpholino)(3-(2,4,5-trifluoro-3-hydroxyphenyl)-1,2,4-oxadiazol-5-yl)methanone]
11 | > 50 | 0.392 | 0.15 | > 50 | C[C@H]1CN(C(=O)c2noc(-c3cc(F)c(F)c(O)c3F)n2)C[C@H](C)O1 [Example 54, ((2S,6S)-2,6-Dimethylmorpholino)(5-(2,4,5-trifluoro-3-hydroxyphenyl)-1,2,4-oxadiazol-3-yl)methanone]
12 | 19 | 0.062 | 1.12 | > 50 | O=C(c1noc(-c2cc(F)c(F)c(O)c2F)n1)N1CCN(c2nc3ccccc3o2)CC1 [Example 72, (4-(Benzo[d]oxazol-2-yl)piperazin-1-yl)(5-(2,4,5-trifluoro-3-hydroxyphenyl)-1,2,4-oxadiazol-3-yl)methanone]
13 | > 50 | 0.117 | 0.06 | > 50 | C[C@@H]1CN(C(=O)c2noc(-c3cc(O)c(F)c(F)c3)n2)C[C@H](C)O1 [Example 116, (5-(3,4-Difluoro-5-hydroxyphenyl)-1,2,4-oxadiazol-3-yl)((2R,6S)-2,6-dimethylmorpholino)methanone]
14 | 19.8 | 0.198 | 0.3 | > 50 | COc1ccccc1N1CCN(C(=O)c2noc(-c3cc(F)c(F)c(O)c3F)n2)CC1 [Example 84, (4-(2-Methoxyphenyl)piperazin-1-yl)(5-(2,4,5-trifluoro-3-hydroxyphenyl)-1,2,4-oxadiazol-3-yl)methanone]
